Test results: patent US7312248B2, “Control of parasites in animals by the use of novel trifluoromethanesulfonanilide oxime ether derivatives” (Schering-Plough Animal Health Corporation, priority 2004, dated 2007)
Like-named read-outs stand apart in the source and are kept apart here.

What was measured:
Type in all cases: in vivo
[1] = test system: cat flea (Ctenocephalides felis); assay: Ctenocephalides felis adulticide assay: dose response (LC50)
Outline: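 Groups of 15 adult cat fleas, 3–7 days post-emergence, were exposed for 24 h at 25° C and 75% humidity to glass flask bases coated with six serial doses in acetone and dried for 24 h. Mortality was scored at 8 and 24 h, and LC50 was the surface-treatment concentration killing 50%.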

[2] = test system: Brown Dog Tick (Rhipicephalus sanguineus); assay: Dose response protocol for topical application on brown dog ticks (LD50); conditions: 24 h mortality
Method: e) Dose response protocol for topical application on brown dog ticks (Rhipicephalus sanguineus): The test determines the level of insecticidal activity of sample compounds or formulations when applied topically on brown dog ticks. Sample compounds were stored prior to use in a freezer (−5±1° C.), unless otherwise specified.
• Mortality: A tick is defined as dead after it gives no apparent response when touched lightly or gently breathed upon, while observed for 30 seconds. • LD50 (Lethal Dose 50): The dose of a topically applied treatment at which 50% of the dog ticks are killed. • Reference compound: To assess an experimental compound for significant acaricidal activity a single dose level is chosen, which is based upon known results from previous experiments using a commercially available active i.e., a reference compound. The reference compound selected is one in common use, and one that has a similar mode of action against the Brown Dog Tick (i.e., the test species). • Recovery container: A recovery container consists of a 500 ml round plastic container measuring 115 mm diameter and 70 mm height, with a tight fitting lid that has 10 small (˜1 mm) holes inserted for air exchange. A 90 mm diameter piece of filter paper was placed on the bottom of the container and moistened with 1 mL of de-stilled water.
Adult, mixed sex, Brown Dog Ticks (Rhipicephalus sanguineus) were reared as follows: (i) cultured, (ii) transferred unfed, to a testing laboratory, and (iii) then maintained under controlled conditions (i.e., temp. 18°±2° C., humidity 75±5% RH). The ticks used were selected for vigor prior to testing, i.e., capable of actively walking and responsive to being touched or gently breathed upon.
During the testing, the temperature was maintained at 25±1° C., and the humidity was ambient. Seven dose levels (concentrations) of sample compound, in the form of serial dilutions in acetone, were derived from a pilot study and covered a range that produced very low to very high mortality. Groups of ten ticks were treated topically (on the abdomen) with 1 μL of a single dose level of the sample compound. Each test was replicated four times, i.e., employing a total of 40 ticks per dose level of each sample compound. As a control, ten ticks were treated with solvent only (acetone) for each test. Following the treatment, the ticks were held in recovery containers maintained under appropriate rearing conditions for 24 hours. Mortality resulting from the treatments was recorded at 24 hours. […] Press, London (1971).]

[3] = test system: cat flea (Ctenocephalides felis); assay: whole plant or invertebrate; conditions: Ctenocephalides felis
Outline: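 Adult C. felis (3-7 days post-emergence; 15 per flask, at least 4 replicates) exposed to a glass flask base dried 24 h after coating with compound in acetone at 1.26 μg/cm^2. Held at 25±1 °C, 75±5% humidity; mortality (immobile or unable to right) scored at 8, 24 and/or 48 h as percentage.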

[4] = test system: Brown Dog Tick (Rhipicephalus sanguineus); assay: Rapid screening protocol for topical application on brown dog ticks; conditions: 48 h; Laboratory 2 F data
Method: d) Rapid Screening Protocol for Topical Application on Brown Dog Ticks (Rhipicephalus sanguineus)
The aim of the test was to determine the presence of significant acaricidal activity in sample compounds or formulations when applied topically on brown dog ticks. A tick was defined as dead if it gave no apparent response when touched lightly and observed for 1 minute. […] Both permethrin and fipronil were employed as reference compounds. The insect species tested was the Brown Dog Tick (Rhipicephalus sanguineus). Mixed sex adult ticks were used for tests. The strain used was cultured by von Berky Veterinary Services, Woody Point, QLD, AU and supplied as unfed adult ticks (mixed sex). Ticks were maintained in controlled conditions (temp. 18°+2° C., humidity 75±5% RH).
Temperature was maintained at 25±1° C. and the humidity was ambient. […] Ticks were each treated on the abdomen with 1 μL of a single dose level of test sample in acetone; ten ticks were treated with solvent only (acetone) in each test. Tests were replicated 4 times (total of 40 ticks treated). […]

Haemonchus contortus = Haemonchus contortus larvacidal (larval development) assay; conditions: 144 h, read-out: Haemonchus contortus LD99
Outline: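 Nematode eggs placed on agar containing compound (12 two-fold dilutions, final 0.024–50 μg/ml) and left 6 days to develop to L3. LD99 is the lowest concentration inhibiting development of 99% of larvae, derived from well titre (2^n−1) and top concentration.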

[5] = 24 h, read-out: C. felis Mortality (%) 24 h, 24 h, Laboratory 1 A data
[6] = 8 h, read-out: C. felis Mortality (%) 8 h, 8 h, Laboratory 2 B data
[7] = 24 h, read-out: C. felis Mortality (%) 24 h, 24 h, Laboratory 2 B data
[8] = 48 h, read-out: C. felis Mortality (%) 48 h, 48 h, Laboratory 2 B data

| SMILES | C. felis LC50 ([1]; Laboratory 1 C data) | R. sanguineus LD50 [2] | mortality at 1.26 µg/cm2, 1.26 µg/cm2 [3, 5] | R. sanguineus Mortality (%) 48 h [4] | C. felis LC50 ([1]; Laboratory 2 D data) | mortality at 1.26 µg/cm2, 1.26 µg/cm2 [3, 6] | mortality at 1.26 µg/cm2, 1.26 µg/cm2 [3, 7] | mortality at 1.26 µg/cm2, 1.26 µg/cm2 [3, 8] | IC99 (Haemonchus contortus) |
| --- | --- | --- | --- | --- | --- | --- | --- | --- | --- |
| CCON=C(c1ccccc1)c1cc(Cl)ccc1NS(=O)(=O)C(F)(F)F (single isomer, unassigned) [Compound 177, N-[4-chloro-2-(ethoxyiminophenylmethyl)phenyl]trifluoromethanesulfonamide] | 0.3 μg/cm^2 | 17.6 μg/tick | 100% |  |  |  |  |  |  |
| CC(C)/C(=N\Oc1ccc(Cl)cc1)c1cc(Cl)ccc1NS(=O)(=O)C(F)(F)F [Compound 215, N-{4-chloro-2-[1-(4-chlorophenoxyimino)-2-methylpropyl]phenyl}trifluoromethanesulfonamide] |  | 1.7 μg/tick |  | 87% | 0.07^D μg/cm^2 | 82% | 100% |  |  |
| CC/C(=N\OC(C)CC)c1cc(Cl)ccc1NS(=O)(=O)C(F)(F)F (stereo not shown) [Compound 243] |  | 3.8 μg/tick |  |  | 0.1^D μg/cm^2 |  | 100% | 100% |  |
| CC/C(=N\OC(C)(C)C)c1cc(Cl)ccc1NS(=O)(=O)C(F)(F)F [Compound 224] |  | 1.5 μg/tick |  | 95% | 0.04^D μg/cm^2 | 83% | 100% |  |  |
| CC(C)ON=C(c1cc(Cl)ccc1NS(=O)(=O)C(F)(F)F)C1CCCCC1 (racemic) [Compound 210, N-[4-chloro-2-(cyclohexylisopropoxyiminomethyl)phenyl]trifluoromethanesulfonamide] |  | 2.7 μg/tick |  | 100% | 0.1^D μg/cm^2 | 66% | 100% |  |  |
| CC/C(=N\OC1CCCCC1)c1cc(Cl)ccc1NS(=O)(=O)C(F)(F)F [Compound 157] | 0.3 μg/cm^2 | 5.7 μg/tick | 100% |  |  |  |  |  |  |
| CC/C(=N\OCCC(C)C)c1cc(Cl)ccc1NS(=O)(=O)C(F)(F)F [Compound 247] |  | 4.6 μg/tick |  |  | 0.1^D μg/cm^2 |  | 100% | 100% |  |
| CCCCO/N=C(\C)c1cc(Cl)ccc1NS(=O)(=O)C(F)(F)F [Compound 244] |  | 3.0 μg/tick |  |  | 0.07^D μg/cm^2 |  | 100% | 100% |  |
| C#CCO/N=C(\C)c1cc(Cl)ccc1NS(=O)(=O)C(F)(F)F [Compound 202] |  | 0.9 μg/tick |  | 100% | 0.01^D μg/cm^2 | 100% | 100% |  |  |
| COCCO/N=C(\C)c1cc(Cl)ccc1NS(=O)(=O)C(F)(F)F [Compound 185, N-{4-chloro-2-[1-(2-methoxyethoxyimino)ethyl]phenyl}trifluoromethanesulfonamide] | 0.2 μg/cm^2 | 0.7 μg/tick |  | 100% | 0.01 μg/cm^2 | 100% | 100% |  |  |
| CC(C)=CCO/N=C(\C)c1cc(Cl)ccc1NS(=O)(=O)C(F)(F)F [Compound 249] |  | 3.3 μg/tick |  |  | 1.3^D μg/cm^2 |  | 100% | 100% |  |
| CCC(C)O/N=C(\C)c1cc(Cl)ccc1NS(=O)(=O)C(F)(F)F (stereo not shown) [Compound 242] |  | 3.1 μg/tick |  |  | 0.1^D μg/cm^2 |  | 100% | 100% |  |
| C/C(=N\OC1C=CCCC1)c1cc(Cl)ccc1NS(=O)(=O)C(F)(F)F (stereo not shown) [Compound 175] | 0.1 μg/cm^2 | 4.0 μg/tick | 100% |  |  |  |  |  |  |
| C=CCO/N=C(\C)c1ccc(C(F)(F)F)cc1NS(=O)(=O)C(F)(F)F [Compound 241, N-[2-(1-allyloxyiminoethyl)-5-trifluoromethylphenyl]trifluoromethanesulfonamide] |  | 1.9 μg/tick |  |  | 0.1^D μg/cm^2 |  | 100% | 100% |  |
| CCC(CC)O/N=C(\C)c1cc(Cl)ccc1NS(=O)(=O)C(F)(F)F [Compound 174] | 0.1 μg/cm^2 | 2.9 μg/tick | 100% |  |  |  |  |  |  |
| CCCCO/N=C(\CC)c1cc(Cl)ccc1NS(=O)(=O)C(F)(F)F [Compound 245] |  | 3.9 μg/tick |  |  | 0.09^D μg/cm^2 |  | 100% | 100% |  |
| C/C(=N\OC(C)C1CC1)c1cc(Cl)ccc1NS(=O)(=O)C(F)(F)F (stereo not shown) [Compound 253] |  | 3.4 μg/tick |  |  | 1.2^D μg/cm^2 |  | 100% | 100% |  |
| C/C(=N\Oc1ccc(F)cc1)c1cc(Cl)ccc1NS(=O)(=O)C(F)(F)F [Compound 129, N-{4-chloro-2-[1-(4-fluorophenoxyimino)ethyl]phenyl}trifluoromethanesulfonamide] | 0.05 μg/cm^2 | 1.3 μg/tick | 100% |  | 0.02 μg/cm^2 |  |  |  | 1.9 µg/mL |
| C/C(=N\OC(C)C)c1ccc(C(F)(F)F)cc1NS(=O)(=O)C(F)(F)F [Compound 235] |  | 2.3 μg/tick |  |  | 0.2^D μg/cm^2 |  | 100% | 100% |  |
